Data reported in patent US20220378802A1, “TREATMENT OF ALCOHOLIC HEPATITIS” (Durect Corporation, priority 2019, published 2022).
Entries after “also recorded” stand apart in the source; their conditions may differ.

How the values were obtained:
[1] = Pharmacokinetics of 25HC3S in healthy subjects (earlier study); type: in vivo, human; conditions: Healthy subjects (N = 5), single dose of 150 mg
Excerpt: The clearance of 25HC3S sodium was decreased by 80% in AH patients as compared to that in healthy subjects from an earlier study. A comparison of the pharmacokinetic parameters of 25HC3S administered to healthy subjects versus subjects with alcoholic hepatitis is summarized in the following Table. A comparison of the plasma concentration of 25HC3S administered to healthy subjects versus subjects with alcoholic hepatitis is depicted in FIG. 5.

[2] = tested on: patients with alcoholic hepatitis; assay: Safety and tolerability in Phase 2a trial; type: in vivo, human; conditions: all AH patients
Protocol: All patients received IV infused 25HC3S (at 30, 90, or 150 mg) on Day 1 and Day 4 (if still hospitalized), and were followed for 28-days. The final enrollment was 19 patients comprised of: 8 patients (4 moderate and 4 severe) dosed at 30 mg, 7 patients (3 moderate and 4 severe) dosed at 90 mg, and 4 patients (4 severe) dosed at 150 mg. • Study Drug A 25HC3S sodium salt solution contained: • 30 mg/mL 25HC3S sodium salt; • 240 mg/mL hydroxypropyl-beta-cyclodextrin; and • 50 mmole phosphate buffer • The 25HC3S sodium salt solution was diluted in 100 mL 5% dextrose or 0.9% sodium chloride infusion solution: • Dose 1: 30 mg of 25HC3S sodium salt in 100 mL 5% dextrose or 0.9% sodium chloride • Dose 2: 90 mg of 25HC3S sodium salt in 100 mL 5% dextrose or 0.9% sodium chloride • Dose 3: 150 mg of 25HC3S sodium salt in 100 mL 5% dextrose or 0.9% sodium chloride • 25HC3S sodium salt was administered by slow intravenous infusion over 2 hrs (50 mL/h) until the entire dose is given at Day 1 and Day 4. If a patient met the hospital discharge criteria prior to the second dose, the patient received only one dose instead of two doses. • Study Procedure The study was conducted in two parts. Part A included patients with MELD scores of 11-20 (moderate AH patients), and Part B included patients with MELD of scores 21-30. The doses of 25HC3S sodium salt administered were 30 mg and 90 mg for Part A and 30 mg, 90 mg and 150 mg for Part B, with 4 patients per dose group per Part (except for only 3 patients in the 90 mg cohort of Part A). All patients were followed to Day 28. • The study started in 4 moderate AH patients (Part A) at 30 mg dose level. After completing the dosing, a Dose Escalation Committee (DEC) reviewed safety, tolerability and pharmacokinetic (PK) data from all 4 patients and determined that it was safe to move forward to dose 4 severe AH patients (Part B) at the same dose level, 30 mg, as well as escalating the dose level to 90 mg in moderate patients (Part A). […]

SMILES: C[C@H](CCCC(C)(C)O)[C@H]1CC[C@H]2[C@@H]3CC=C4C[C@@H](OS(=O)(=O)O)CC[C@]4(C)[C@H]3CC[C@]12C [25HC3S, 5-cholesten-3,25-diol, 3-sulfate]
- V [1]: 55.0 (4.3) L
- AUC(0-inf) ([1]; human, plasma): 6190 ng·h/mL
- Cmax ([1]; human, plasma): 3100 ng/mL
- clearance ([1]; human, plasma): 408 mL/min
- half-life ([1]; human, plasma, read-out: T½ (converted)): 1.6 h
- safety / tolerability ([2]; 30, 90, 150 mg): safe and well tolerated
- serious adverse events ([2]; 30, 90, 150 mg): no drug-related serious adverse events; also recorded: no treatment emergent serious adverse events; also recorded: no serious adverse effects related to 25HC3S
- discontinuations, early withdrawal or termination due to adverse effects [2]: no discontinuations, early withdrawal or termination
